Experimental data from patent US10968264B2, “Cyclic peptide tyrosine tyrosine compounds as modulators of neuropeptide Y receptors” (priority 2016, dated 2021).
Numbered stars: 1 amine (or outer) side, 2 acyl side, 3 side chain; on linkers, the order of the positions; unused ones are H or OH. Bridge positions count the residues as written; N and C are the ends. Side chains are listed from the residue outwards. Peptide text beside a SMILES is read from it. * marks the point of attachment. Argψ(CH2NH)TyrNH2 = N=C(N)NCCC[C@@H](CN[C@@H](Cc1ccc(O)cc1)C(N)=O)N*; C18 diacid = O=C(O)CCCCCCCCCCCCCCCCC(=O)*; γGlu = O=C(O)[C@H](CCC(=O)[*:2])N[*:1]; AEEA = NCCOCCOCC(=O)O

Target: T1, human NPY2R (Homo sapiens, UniProt P49146)
T1 construct: expressed in transfected cells; host or cells: HEK cells
Assay: Human NPY2R cAMP in vitro potency assay (hY2 assay), inhibition of forskolin-induced cAMP, LANCE FRET
Type: cell-based
Experimental: The method used to test the potency of PYY analogs in vitro was a cell based assay designed to measure inhibition of forskolin-induced cAMP produced by adenylate cyclase through modulation of the human NPY2R Gi-protein coupled receptor.
Cells were thawed from cryopreservation and added to 15 ml of cell media (DMEM/high glucose (Cellgro), 10% FBS (Hyclone), 1% Pen/Strep (Life Technologies), 1% L-Glutamine (Thermo Scientific), 1% Na Pyruvate (Thermo Scientific)). […] Supernatants in the assay plate were decanted. Dilutions of PYY analogs and controls were prepared in 1×HBSS (Cellgro), 5 mM HEPES (Cellgro), 0.1% BSA (PerkinElmer) and 0.5 mM 3-isobutyl-1-methylxanthine (Sigma), and 6 μL/well of each sample were added to designated wells. […] All samples were measured in triplicate. Data were analyzed using the Crucible in-house data analysis software, designed by Eudean Shaw. The unknown cAMP concentrations within each well were interpolated from the reference standards of known cAMP concentrations included within each plate.

[1] = Y2R EC50 (nM) SEQ ID NO: 2-39, human NPY2R transfected HEK cells, NTSC-PYY compound

T1 sequence (P49146 whole entry): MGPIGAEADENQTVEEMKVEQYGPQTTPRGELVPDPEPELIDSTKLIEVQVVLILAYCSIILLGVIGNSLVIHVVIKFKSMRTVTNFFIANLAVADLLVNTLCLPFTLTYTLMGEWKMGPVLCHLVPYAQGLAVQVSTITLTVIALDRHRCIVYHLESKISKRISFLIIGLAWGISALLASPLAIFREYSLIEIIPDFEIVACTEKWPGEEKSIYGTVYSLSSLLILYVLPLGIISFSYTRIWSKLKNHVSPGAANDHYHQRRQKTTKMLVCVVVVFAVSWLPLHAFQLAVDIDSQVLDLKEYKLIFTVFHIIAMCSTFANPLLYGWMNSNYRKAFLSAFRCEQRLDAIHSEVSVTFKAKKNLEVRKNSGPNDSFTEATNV

SMILES | EC50 (Y2R EC50 (nM) SEQ ID NO: 2-39) | EC50 [1]
CCCCCCCCCCCCCCCC(=O)N[C@@H](CCC(=O)NCCCC[C@@H]1NC(=O)[C@H](CC(N)=O)NC(=O)[C@H](CC(C)C)NC(=O)[C@H](Cc2ccc(O)cc2)NC(=O)[C@H](C)NC(=O)[C@H](CCCNC(=N)N)NC(=O)[C@H](CC(C)C)NC(=O)[C@H](CO)NC(=O)[C@H](C)NC(=O)[C@H](Cc2ccc(O)cc2)NC(=O)[C@H](Cc2ccc(O)cc2)NC(=O)[C@H](CCCNC(=N)N)NC(=O)[C@H](CC(N)=O)NC(=O)[C@H](CC(C)C)NC(=O)[C@H](CCC(=O)O)NC(=O)[C@H](CCC(=O)O)NC(=O)[C@@H]2CCCN2C(=O)[C@H](CO)NC(=O)[C@H](C)NC(=O)[C@H](CC(=O)O)NC(=O)[C@H](CCC(=O)O)NC(=O)CNC(=O)[C@@H]2CCCN2C(=O)[C@H](C)NC(=O)[C@H](CCC(=O)O)NC(=O)[C@@H]2CCCN2C(=O)[C@H](CCC(=O)O)NC(=O)[C@H]([C@@H](C)CC)NC(=O)c2cccc(c2)CSCC[C@@H](C(=O)N[C@H](C(=O)N[C@@H](CCCNC(=N)N)C(=O)N[C@@H](CCC(N)=O)C(=O)N[C@@H](CCCNC(=N)N)C(=O)N[C@@H](Cc2ccc(O)cc2)C(N)=O)[C@@H](C)O)NC1=O)C(=O)O [SEQ ID NO: 22] | 4.4 nM | –
CCCCCCCCCCCCCCCC(=O)N[C@@H](CCC(=O)NCCCC[C@@H]1NC(=O)[C@H](CC(N)=O)NC(=O)[C@H](CC(C)C)NC(=O)[C@H](Cc2ccc(O)cc2)NC(=O)[C@H](C)NC(=O)[C@H](CCCNC(=N)N)NC(=O)[C@H](CC(C)C)NC(=O)[C@H](CO)NC(=O)[C@H](C)NC(=O)[C@H](Cc2ccc(O)cc2)NC(=O)[C@H](Cc2ccc(O)cc2)NC(=O)[C@H](CCCNC(=N)N)NC(=O)[C@H](CC(N)=O)NC(=O)[C@H](CC(C)C)NC(=O)[C@H](CCC(=O)O)NC(=O)[C@H](CCC(=O)O)NC(=O)[C@@H]2CCCN2C(=O)[C@H](CO)NC(=O)[C@H](C)NC(=O)[C@H](CC(=O)O)NC(=O)[C@H](CCC(=O)O)NC(=O)CNC(=O)[C@@H]2CCCN2C(=O)[C@H](C)NC(=O)[C@H](CCC(=O)O)NC(=O)[C@@H]2CCCN2C(=O)[C@H](C)NC(=O)[C@H]([C@@H](C)CC)NC(=O)c2cccc(c2)CSCC[C@@H](C(=O)N[C@H](C(=O)N[C@@H](CCCNC(=N)N)C(=O)N[C@@H](CCC(N)=O)C(=O)N[C@@H](CCCNC(=N)N)C(=O)N[C@@H](Cc2ccc(O)cc2)C(N)=O)[C@@H](C)O)NC1=O)C(=O)O [SEQ ID NO: 21] | – | 0.49 nM
CC[C@H](C)[C@@H]1NC(=O)CNC(=O)CC[C@@H](C(=O)N[C@H](C(=O)N[C@H](C(=O)N[C@@H](CCCNC(=N)N)C(=O)N[C@@H](CCC(N)=O)C(=O)N[C@@H](CCCNC(=N)N)CN[C@@H](Cc2ccc(O)cc2)C(N)=O)[C@@H](C)O)C(C)C)NC(=O)[C@H](CC(N)=O)NC(=O)[C@H](CC(C)C)NC(=O)[C@H](Cc2ccc(O)cc2)NC(=O)[C@H](Cc2c[nH]cn2)NC(=O)[C@H](CCCNC(=N)N)NC(=O)[C@H](CC(C)C)NC(=O)[C@H](CO)NC(=O)[C@H](C)NC(=O)[C@H](Cc2ccc(O)cc2)NC(=O)[C@H](Cc2ccc(O)cc2)NC(=O)[C@H](CCCNC(=N)N)NC(=O)[C@H](CC(N)=O)NC(=O)[C@H](CC(C)C)NC(=O)[C@H](CCC(=O)O)NC(=O)[C@H](CCC(=O)O)NC(=O)[C@@H]2CCCN2C(=O)[C@H](CO)NC(=O)[C@H](C)NC(=O)[C@H](CCCCN)NC(=O)[C@H](CCC(=O)O)NC(=O)CNC(=O)[C@@H]2CCCN2C(=O)[C@H](C)NC(=O)[C@H](CCC(=O)O)NC(=O)[C@@H]2CCCN2C(=O)[C@H](CO)NC1=O [SEQ ID NO: 70, [cyclo-(G2-E30), S4, K11, psi-(R35,Y36)]-PYY2-36] (HELM PEPTIDE1{G.I.S.P.E.A.P.G.E.K.A.S.P.E.E.L.N.R.Y.Y.A.S.L.R.H.Y.L.N.E.V.T.R.Q.[N=C(N)NCCC[C@@H](CN[C@@H](Cc1ccc(O)cc1)C(N)=O)N[*:1]]}$PEPTIDE1,PEPTIDE1,1:R1-29:R3$$$V2.0) | 0.02 nM | –
CC[C@H](C)[C@@H]1NC(=O)CCNC(=O)CSC[C@@H](C(=O)N[C@H](C(=O)N[C@H](C(=O)N[C@@H](CCCNC(=N)N)C(=O)N[C@@H](CCC(N)=O)C(=O)N[C@@H](CCCNC(=N)N)CN[C@@H](Cc2ccc(O)cc2)C(N)=O)[C@@H](C)O)C(C)C)NC(=O)[C@H](CC(N)=O)NC(=O)[C@H](CC(C)C)NC(=O)[C@H](Cc2ccc(O)cc2)NC(=O)[C@H](Cc2c[nH]cn2)NC(=O)[C@H](CCCNC(=N)N)NC(=O)[C@H](CC(C)C)NC(=O)[C@H](CO)NC(=O)[C@H](C)NC(=O)[C@H](Cc2ccc(O)cc2)NC(=O)[C@H](Cc2ccc(O)cc2)NC(=O)[C@H](CCCNC(=N)N)NC(=O)[C@H](CC(N)=O)NC(=O)[C@H](CC(C)C)NC(=O)[C@H](CCC(=O)O)NC(=O)[C@H](CCC(=O)O)NC(=O)[C@@H]2CCCN2C(=O)[C@H](CO)NC(=O)[C@H](C)NC(=O)[C@H](CCCCNC(=O)COCCOCCNC(=O)COCCOCCNC(=O)CC[C@H](NC(=O)CCCCCCCCCCCCCCCCC(=O)O)C(=O)O)NC(=O)[C@H](CCC(=O)O)NC(=O)CNC(=O)[C@@H]2CCCN2C(=O)[C@H](C)NC(=O)[C@H](CCC(=O)O)NC(=O)[C@@H]2CCCN2C(=O)[C@H](CCCCN)NC1=O [SEQ ID NO: 68] | 0.27 nM | –
CC[C@H](C)[C@@H]1NC(=O)CNC(=O)CC[C@@H](C(=O)N[C@H](C(=O)N[C@H](C(=O)N[C@@H](CCCNC(=N)N)C(=O)N[C@@H](CCC(N)=O)C(=O)N[C@@H](CCCNC(=N)N)CN[C@@H](Cc2ccc(O)cc2)C(N)=O)[C@@H](C)O)C(C)C)NC(=O)[C@H](CC(N)=O)NC(=O)[C@H](CC(C)C)NC(=O)[C@H](Cc2ccc(O)cc2)NC(=O)[C@H](Cc2c[nH]cn2)NC(=O)[C@H](CCCNC(=N)N)NC(=O)[C@H](CC(C)C)NC(=O)[C@H](CO)NC(=O)[C@H](C)NC(=O)[C@H](Cc2ccc(O)cc2)NC(=O)[C@H](Cc2ccc(O)cc2)NC(=O)[C@H](CCCNC(=N)N)NC(=O)[C@H](CC(N)=O)NC(=O)[C@H](CC(C)C)NC(=O)[C@H](CCC(=O)O)NC(=O)[C@H](CCC(=O)O)NC(=O)[C@@H]2CCCN2C(=O)[C@H](CO)NC(=O)[C@H](C)NC(=O)[C@H](CCCCNC(=O)COCCOCCNC(=O)COCCOCCNC(=O)CC[C@H](NC(=O)CCCCCCCCCCCCCCCCC(=O)O)C(=O)O)NC(=O)[C@H](CCC(=O)O)NC(=O)CNC(=O)[C@@H]2CCCN2C(=O)[C@H](C)NC(=O)[C@H](CCC(=O)O)NC(=O)[C@@H]2CCCN2C(=O)[C@H](CO)NC1=O [SEQ ID NO: 72] (GISPEAPGEK([AEEA-AEEA-γGlu-C18 diacid])ASPEELNRYYASLRHYLNEVTRQ-{Argψ(CH2NH)TyrNH2}; lactam N-29) | – | 1.75 nM
